Experimental data published in publication doi:10.1101/504357v1 (biorxiv, 2018).
≈ marks a conversion by molar mass, not a printed value.

Assays:
S. pyogenes = assay: microbe, parasite or virus in culture; parameters: species or system Streptococcus pyogenes ATCC 19615; conditions: Streptococcus pyogenes, read-out: MIC (ug/mL)
HuDHFR = biological target: T1, HuDHFR (Homo sapiens, UniProt P00374); assay: DHFR inhibition assay; assay type: biochemical
T1 sequence (P00374 1-187): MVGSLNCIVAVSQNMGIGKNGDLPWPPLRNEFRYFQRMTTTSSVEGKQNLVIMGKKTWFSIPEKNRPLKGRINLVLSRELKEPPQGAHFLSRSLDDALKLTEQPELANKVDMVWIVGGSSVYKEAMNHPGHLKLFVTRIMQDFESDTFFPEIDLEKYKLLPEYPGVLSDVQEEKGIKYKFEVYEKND

Structure (SMILES) | MIC (S. pyogenes) | IC50 (HuDHFR)
CCc1nc(N)nc(N)c1C#CC(C)c1cc(-c2cc(C)nc(C)c2)ccc1Cl (racemic) [compound 10] | 0.312 µg/mL (≈ 0.769 µM) | –
CCc1nc(N)nc(N)c1C#C[C@H](C)c1cc(-c2ccc(C(=O)O)cc2)ccc1OC [compound 4] | 0.078 µg/mL (≈ 0.187 µM) | –
CCc1nc(N)nc(N)c1C#CC(C)c1cc(F)cc(-c2cc(C)nc(C)c2)c1 (stereo not drawn) [compound 16] | ≤ 0.039 µg/mL | –
CCc1nc(N)nc(N)c1C#CC(C)c1cc(-c2cc(C)nc(C)c2)ccc1OC(F)(F)F (stereo not drawn) [compound 15] | 0.312 µg/mL (≈ 0.685 µM) | –
CCc1nc(N)nc(N)c1C#CC(C)c1cc(-c2ccncc2)cc(F)c1OC (stereo not drawn) [compound 17] | ≤ 0.039 µg/mL | 234 ± 16 nM
CCc1nc(N)nc(N)c1C#CCc1cc(-c2ccccc2C(=O)O)ccc1OC [compound 6] | 0.625 µg/mL (≈ 1.55 µM) | –
CCc1nc(N)nc(N)c1C#CC(C)c1cc2c(c(-c3cc(C)nc(C)c3)c1)OCCO2 (stereo not drawn) [compound 19] | ≤ 0.039 µg/mL | –
CCc1nc(N)nc(N)c1C#CC(C)c1cccc(-c2cc(C)nc(C)c2)c1 (stereo not drawn) [compound 18] | ≤ 0.039 µg/mL | –
CCc1nc(N)nc(N)c1C#C[C@@H](C)c1cc(-c2cc(C)nc(C)c2)ccc1Cl [compound 11] | 0.625 µg/mL (≈ 1.54 µM) | 207 ± 13 nM
CCc1nc(N)nc(N)c1C#C[C@H](C)c1cc(OC)cc(-c2ccc(C(=O)O)cc2)c1 [compound 3] | ≤ 0.039 µg/mL | –
CCc1nc(N)nc(N)c1C#C[C@@H](C)c1cc(-c2cc(C)nc(C)c2)ccc1OC(F)(F)F [compound 13] | 0.156 µg/mL (≈ 0.342 µM) | 167 ± 9 nM
CCc1nc(N)nc(N)c1C#C[C@H](C)c1cc(-c2cc(C)nc(C)c2)ccc1OC(F)(F)F [compound 12] | 0.312 µg/mL (≈ 0.685 µM) | –
CCc1nc(N)nc(N)c1C#CCc1cc(-c2ccc(C(=O)O)cc2)ccc1OC [compound 7] | 0.078 µg/mL (≈ 0.194 µM) | –
CCc1nc(N)nc(N)c1C#C[C@@H](C)c1cc(OC)cc(-c2ccc(C(=O)O)cc2)c1 [compound 2] | ≤ 0.039 µg/mL | –
CCc1nc(N)nc(N)c1C#CCc1cc(-c2cc(C)nc(C)c2)ccc1OC(F)(F)F [compound 14] | 0.625 µg/mL (≈ 1.42 µM) | –
CCc1nc(N)nc(N)c1C#C[C@H](C)c1cc(-c2cc(C)nc(C)c2)ccc1Cl [compound 9] | ≤ 0.039 µg/mL | 210 ± 18 nM
CCc1nc(N)nc(N)c1C#C[C@@H](C)c1cc(-c2ccc(C(=O)O)cc2)ccc1OC [compound 5] | 0.078 µg/mL (≈ 0.187 µM) | –
CCc1nc(N)nc(N)c1C#CCc1cc(OC)cc(-c2ccc(C(=O)O)cc2)c1 [compound 1] | ≤ 0.039 µg/mL | –

Further lines, results first:

MIC (S. pyogenes) | IC50 (HuDHFR) | Structure (SMILES)
≤ 0.039 µg/mL | – | CCc1nc(N)nc(N)c1C#C[C@H](C)c1cc(-c2ccncc2)ccc1OC [compound 25]
≤ 0.039 µg/mL | – | CCc1nc(N)nc(N)c1C#C[C@H](C)c1cc(OC)c(OC)c(-c2ccncc2)c1 [compound 30]
≤ 0.039 µg/mL | – | CCc1nc(N)nc(N)c1C#C[C@@H](C)c1cc(-c2ccncc2)ccc1OC [compound 26]
≤ 0.039 µg/mL | 74 ± 7 nM | CCc1nc(N)nc(N)c1C#C[C@H](C)c1ccc(OC)c(-c2ccncc2)c1 [compound 24]
0.312 µg/mL (≈ 0.831 µM) | – | CCc1nc(N)nc(N)c1C#CC(C)c1cc(O)c(O)c(-c2ccncc2)c1 (stereo not drawn) [compound 32]
≤ 0.039 µg/mL | – | CCc1nc(N)nc(N)c1C#CC(C)c1cc(OC)c(OC)c(-c2ccncc2)c1 (stereo not drawn) [compound 29]
≤ 0.039 µg/mL | 191 ± 12 nM | CCc1nc(N)nc(N)c1C#C[C@@H](C)c1cc2c(c(-c3ccncc3)c1)OCO2 [compound 21]
≤ 0.039 µg/mL | 68 ± 7 nM | CCc1nc(N)nc(N)c1C#C[C@@H](C)c1ccc(OC)c(-c2ccncc2)c1 [compound 23]
≤ 0.039 µg/mL | – | CCc1nc(N)nc(N)c1C#C[C@@H](C)c1cc(OC)cc(-c2ccncc2)c1 [compound 27]
≤ 0.039 µg/mL | – | CCc1nc(N)nc(N)c1C#CC(C)c1cc(-c2ccncc2)cc2c1OCO2 (stereo not drawn) [compound 31]
≤ 0.039 µg/mL | 85 ± 10 nM | CCc1nc(N)nc(N)c1C#C[C@H](C)c1cc2c(c(-c3ccncc3)c1)OCO2 [compound 22]
≤ 0.039 µg/mL | – | CCc1nc(N)nc(N)c1C#C[C@H](C)c1cc(OC)cc(-c2ccncc2)c1 [compound 28]
≤ 0.039 µg/mL | – | CCc1nc(N)nc(N)c1C#CC(C)c1cc2c(c(-c3ccncc3)c1)OCCO2 (stereo not drawn) [compound 20]
